“Also recorded” adds a separate entry of the source.

The subject of assay [1] is pan-AKT phosphorylation (pAKT) in Caki-1 cells. As to the kind of experiment: Phosphor-AKT bioassay for MET agonist activity in Caki-1 cells. It is filed as cell-based. As to conditions: 5 μg/mL. As for the experimental part: Because it has been reported that MET agonistic antibodies increased hepatocyte proliferation and toxicity, a phosphor-AKT assay may be used to test MET-ADCs for MET agonist activity. Briefly stated, Caki-1 cells may be starved overnight in serum-free medium with 0.1% BSA and then treated with ADCs or naked MET antibodies at 5 μg/mL for the desired durations. Cell lysates may be analyzed for phosphorylation of pan-AKT by MSD ELISA, for example.

The subject of another assay is Su.86.86. The assay is described as follows: Cell killing, Su.86.86. Also noted: key: Sensitive; Resistant. It is filed as cell-based, human. As to conditions: Su.86.86, PANC Ca. As for the experimental part:
(§1) Briefly described, 2-3×10^3 cells/well in 100 μL of culture medium may be plated in 96 well plates and incubated overnight at 37° C., 5% CO2. The MET-ADCs, MET antibody(ies), control MMAE or control hIgG4 conjugated to MMAE with cysteine conjugation antibody(ies) may be diluted 1:3 in serum-free culture medium starting from 100 nM (final) in 50 μL as 3× concentrations to the HT-29 cells. At the end of an additional 5-6 days of cell growth at 37° C. in a humidified incubator with 5% CO2, the plates may be equilibrated to room temperature for 30 minutes and 100 μL/well of CellTiter-Glo® reagent (Promega Corp., Fitchburg, Wis.) may then be added to assess cell viability. Cell viability may be determined by measuring luminescence.
(§2) Various tumor cell lines and normal human cells may be tested for MET-ADC induced cell killing activity essentially as described above in Example 10 as assessed for MET receptor density. MET cell surface density was determined by indirect immunofluorescence staining of cell surface antigens on cultured cells using QIFIKIT (Dako). […] Following a forty-five minute incubation, cells may be incubated for 1 hour on ice with FITC conjugated antibody diluted 1:50 in FACS buffer. Then cells may be washed and receptor numbers may be determined by indirect immunofluorescence staining of the QIFIKIT beads using a Becton Dickinson LSRII flow cytometer.

A further assay concerns HCT-116. The assay is described as follows: Cell killing, HCT-116. It is filed as cell-based, human. Set-up: key: Sensitive; Resistant. As to conditions: HCT-116, Colorectal Ca. As for the experimental part:
as §1, §2

The test system of a further assay is CXF-269L. As to the kind of experiment: Cell killing, CXF-269L. It is filed as cell-based, human. Set-up: key to Sensitive/ Resistant: Sensitive; Resistant. As for the experimental part: as §1, §2
In a further assay the test system is GEO. As to the kind of experiment: Cell killing, GEO. It is filed as cell-based, human. Also noted: key: Sensitive; Resistant. As to conditions: Colorectal Ca. As for the experimental part: as §1, §2
The test system of the next assay is EBC-1. The assay is described as follows: Cell killing, EBC-1. Also noted: key: Sensitive; Resistant. As to conditions: EBC-1, NSCLC. It is filed as cell-based, human. As for the experimental part:
as §1, §2

A further assay deals with HCC827. The assay is described as follows: Cell killing, HCC827. Type of assay: cell-based, human. Also noted: key: Sensitive; Resistant. As to conditions: HCC827, NSCLC. As for the experimental part: as §1, §2
The next assay relates to Cal27. The assay is described as follows: Cell killing, Cal27. Type of assay: cell-based, human. Set-up: key: Sensitive; Resistant. The following applies: Cal27, head and neck cancer. As for the experimental part:
as §1, §2

The subject of the next assay is L55. The assay is described as follows: Cell killing, L55. It is filed as cell-based, human. Also noted: key: Sensitive; Resistant. The following applies: L55, NSCLC. As for the experimental part: as §1, §2
The test system of another assay is AOSMC. As to the kind of experiment: Cell killing, non-tumor AOSMC. It is filed as cell-based, human. Set-up: key: Sensitive; Resistant. The following applies: aortic smooth muscule cell. As for the experimental part: as §1, §2
A further assay concerns humen fresh hepatocyte. As to the kind of experiment: Cell killing, fresh hepatocyte. Set-up: key: Sensitive; Resistant. It is filed as cell-based, human. As for the experimental part:
as §1, §2

In another assay the test system is KP-4 xenograft. The assay is described as follows: KP-4 pancreatic cancer xenograft model. Type of assay: in vivo, mouse. The following applies: vs control hIgG4-Lys-ADC. As for the experimental part:
Female athymic nude mice age 6- to 7-weeks old are available commercially, including from Harlan Laboratories (Indianapolis, Ind.). The mice are allowed to acclimate for one week and fed ad libitum on a normal low fat (4.5%) diet, which may be continued for the duration of the study. Tumor cells may be purchased from ATCC and may be cultured in cell culture media such as RPMI 1640 (Life Technologies) with L-glutamine, 25 mM HEPES supplemented with 10% FBS and 1 mM Na Pyruvate. Cells may be detached, washed with serum free medium and then resuspended at a final concentration of 50×10^6 cells/mL in serum free RPMI 1640. Tumor cells, approximately 5×10^6, may be injected subcutaneously in the rear flank of subject mice in a 1:1 mixture of serum free growth medium and Matrigel (Becton Dickinson, Bedford, Mass.). Tumor and body weight measurements may be performed twice weekly. Prior to treatment, mice can be randomized based on tumor size using a randomization algorithm. Treatments may be started when the average tumor volume reaches 100 mm^3. […]
MET-ADCs and control hIgG4-MMAE may be prepared in Phosphate Buffered Saline (PBS) prior to dose. Tumor size may be determined by caliper measurements. […] Log volume data can be analyzed with two-way repeated measures ANOVA by time and treatment using SAS PROC MIXED software (SAS Institutes Inc, Cary, N.C.). […]

In assay [2] the test system is cholangiocarcinoma PDX tumors. The assay is described as follows: Cholangiocarcinoma PDX model. It is filed as in vivo, mouse. The following applies: 5 mg/kg weekly, four doses; 4 cholangiocarcinoma PDX. The text has this: Body weight can also be assessed regularly.
Tumor samples from 4 human cholangiocarcinoma patients were individually implanted into different immunocompromised mice (i.e., each mouse carried one tumor derived from a patient's cholangiocarcinoma tumor) essentially as described above in this Example 13.

In the case of “MET-ADC#1: emibetuzumab lysine-conjugated via (2,5-dioxopyrrolidin-1-yl) 2-azidoacetate and Octyne-β-Glucn-MMAE”, the “MET agonist activity (induction of pan-AKT phosphorylation)” value in assay [1] is listed as “same low to no agonist activity as its unconjugated parental antibody, emibetuzumab; also recorded: does not have increased agonist activity as compared with emibetuzumab”. In addition, the “Sensitive/ Resistant” value is “R” in the assay on Su.86.86; “R” in the assay with HCT-116; “S” in the assay with CXF-269L (CXF-269L, Colorectal Ca); “R” in the assay with GEO; “S” in the assay on EBC-1; “S” with HCC827. Also, the “Sensitive/ Resistant” value is reported as “S” with Cal27, “R” with L55, “R” in the assay on AOSMC and “R” with humen fresh hepatocyte. For the same substance, the “cell killing activity in CXF-269L cells” value with CXF-269L (CXF-269L (TP53) colon cancer cells) is listed as “killed”. Also, the anti-tumor activity entry in the assay on KP-4 xenograft is recorded as “dramatic anti-tumor activity”. Besides, the “inhibition of tumor growth” value in [2] is on record as “dramatically inhibited tumor growth”.
